In ChEMBL document CHEMBL1132082, “Nonsteroidal androgen receptor agonists based on 4-(trifluoromethyl)-2H-pyrano[3,2-g]quinolin-2-one” (Bioorg Med Chem Lett, 1999):

Experiments:
[1] = molecular target: T1, Mineralocorticoid receptor (Homo sapiens, UniProt P08235); assay: In vitro antagonistic activity against human mineralocorticoid receptor (hMR); not active; format: functional
T1 sequence (P08235 whole entry): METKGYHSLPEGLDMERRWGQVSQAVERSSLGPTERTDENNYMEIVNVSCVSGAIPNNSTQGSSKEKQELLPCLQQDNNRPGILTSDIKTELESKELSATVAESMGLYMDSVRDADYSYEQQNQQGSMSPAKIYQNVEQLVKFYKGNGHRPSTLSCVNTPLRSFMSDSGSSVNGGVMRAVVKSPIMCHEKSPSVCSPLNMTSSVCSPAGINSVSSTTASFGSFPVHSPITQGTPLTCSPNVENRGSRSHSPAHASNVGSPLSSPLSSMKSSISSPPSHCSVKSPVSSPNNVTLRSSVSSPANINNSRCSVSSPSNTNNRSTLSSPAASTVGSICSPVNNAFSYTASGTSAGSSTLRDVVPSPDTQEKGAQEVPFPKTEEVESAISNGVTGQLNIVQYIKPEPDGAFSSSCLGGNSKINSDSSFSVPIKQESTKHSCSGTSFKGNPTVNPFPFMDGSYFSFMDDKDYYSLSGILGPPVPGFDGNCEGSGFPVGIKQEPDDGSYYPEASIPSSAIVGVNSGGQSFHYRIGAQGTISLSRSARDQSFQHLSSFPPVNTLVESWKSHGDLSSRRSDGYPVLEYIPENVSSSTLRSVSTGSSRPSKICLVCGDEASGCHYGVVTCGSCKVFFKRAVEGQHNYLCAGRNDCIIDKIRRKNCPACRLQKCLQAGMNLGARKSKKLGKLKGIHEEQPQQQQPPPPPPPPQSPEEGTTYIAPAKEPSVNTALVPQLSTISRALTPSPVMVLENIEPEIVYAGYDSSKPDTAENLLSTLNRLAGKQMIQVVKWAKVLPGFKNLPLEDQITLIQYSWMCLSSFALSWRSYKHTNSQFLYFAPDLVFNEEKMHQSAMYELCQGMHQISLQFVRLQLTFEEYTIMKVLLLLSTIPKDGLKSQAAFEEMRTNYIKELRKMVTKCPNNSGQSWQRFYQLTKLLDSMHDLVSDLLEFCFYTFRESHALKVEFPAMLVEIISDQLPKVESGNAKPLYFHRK

[2] = molecular target: T2, Mineralocorticoid receptor (Homo sapiens) (UniProt P08235); assay: In vitro antagonistic activity against human mineralocorticoid receptor (hMR); format: functional
T2 sequence (whole entry): T1 sequence (P08235 whole entry)

Structure (SMILES)	IC50 [1] [µM]	Efficacy [2] [%]
O=c1cc(C(F)(F)F)c2cc3c(cc2o1)NCCC3C(F)(F)F (stereo not given)	> 10	< 20
CC1CCNc2cc3oc(=O)cc(C(F)(F)F)c3cc21 (stereo not given)	> 10	< 20
CCC1Nc2cc3oc(=O)cc(C(F)(F)F)c3cc2CC1C (stereo not given)	> 10	< 20
CCCC1CCNc2cc3oc(=O)cc(C(F)(F)F)c3cc21 (stereo not given)	> 10	< 20
CCC1CCNc2cc3oc(=O)cc(C(F)(F)F)c3cc21 (stereo not given)	> 10	< 20
